This note sets out measurements from US20250059231A1, “Protease inhibitors” (priority 2021, published 2025).

On the set-up of data set [1]: species or system mice. The conditions noted are these: mouse, in vivo. The text has this: FIG. 5A-multidose PK-profiles of compound 113 in mice after intravenous (IV), intraperitoneal (IP) and subcutaneous (SC) administration to mice (dosed twice per day for 5 days, mean of 3 mice per group).
FIG. 5D-multidose PK-profiles of compound 43 in mice after intravenous (IV), intraperitoneal (IP) and subcutaneous (SC) administration to mice (dosed twice per day for 5 days, mean of 3 mice per group).
Similar data was obtained with compound 43 (FIG. 5D)

The test system of data set [2] is Dengue virus 2 (DENV2, ATCC VR-1584). Kind of data set: DENV2 infection in AG129 mice: clinical signs, body and spleen weights. It is filed as in vivo. The conditions noted are these: for Body weights of mice at the end of the study (Mean ± SD): b.i.d, n = 9; for general clinical signs of treated animals: 20 and 10 mg/kg. As to the method: (§1) The purpose of this study was to determine the efficacy of the compounds on Dengue virus 2 (DENV2, ATCC® VR-1584™) infection in AG129 mice.
(§2) Six groups of AG129 mice, 6-8 weeks old, with 9 mice per group were used to test compounds according to table 3.1.1. Animal room environment was monitored for temperature and relative humidity twice per day. The temperature range was 22° C.±3° C. and humidity range was 30-70%. The animals were provided with 12 hours light and 12 hours darkness. Feed and drinking water was provided ad libitum. Compounds 43 and 113 were tested.
C6/36 (ATCC(CRL-1660) cell lines were grown in RPMI 1640 medium (Gibco/HiMedia) plus 5% fetal bovine serum at 28° C. Dengue virus type 2 (ATCC®VR-1584™) New Guinea C(NGC, DENV2) was passaged in BHK-21 cell cultures to make sufficient stocks for assay. Virus titer was determined by TCID50 method using BHK-21 cells.
(§3) Twenty-four hours post treatment (Day 0), animals were injected intraperitoneally (IP) with 0.2 ml of virus suspension (˜5×10^7/animal).
The vehicle for tested compounds was 5% DMSO+95% (20%) hydroxypropylcyclodextrin. […] Formulations were prepared daily immediately before dosing.
(§4) Administration of compounds and vehicle to animals started twenty four hours before infection (Day −1). Animals were treated daily (From Day-1 to day 4) as per the experimental design shown below in table 3.1.5. Animals were monitored for general clinical signs, morbidity and mortality. Body weights were measured daily.
Animals were sacrificed on day 5 post infection with Isoflurane followed by an overdose of CO2. Spleens were excised, measured and weighed.
(§5) The Mean±SD Log10PFU/ml, relative Mean±SD spleen weight, Mean±SD biomarker concentrations were estimated in each group. Significant differences between group means and control were analyzed by one-way ANOVA, followed by a Dunnett's multiple comparison test, using GraphPad Prism 5 at 95% confidence levels. A p value of <0.05 was considered as significant.

The subject of the next data set is dengue virus. Kind of data set: In vivo assay using subcutaneous vs intraperitoneal administration, plaque assay in mouse plasma. On the set-up: species or system mice. The conditions noted are these: for therapeutic efficacy by plaque assays in mouse plasma through the treatment period / plaque assay in mouse plasma: 20 mg/kg (5h post infection); for efficacy against dengue virus infection after subcutaneous administration: subcutaneous vs other routes of administration, mice. As to the method: FIG. 5B-viral load (plaque assay) in plasma of mice following treatment with vehicle or with compound 113 (20 mg/kg, b.i.d. IP and SC starting at 5h post-infection). Error bars are Mean±SEM.
(§6) BHK-21 cells were cultured to approximately 80% confluency in 24-well plates (NUNC, NY, USA). Plasma samples were 10-fold serially diluted in RPMI 1640 (GIBCO). BHK-21 monolayers were infected with 100 μl of each virus dilution. After incubation at 37° C. and 5% CO2 atmosphere for one hour with rocking at 15 min intervals, the medium was decanted and 1 ml of 1% (w/v)carboxymethyl cellulose in RPMI supplemented with 2% FCS was added to each well. After four days incubation at 37° C. in 5% CO2, the cells were fixed with 4% paraformaldehyde and stained for 30 min with […] of 1% crystal violet dissolved in 37% formaldehyde. After thorough rinsing with water, plates were dried and the plaques were scored visually.
These studies were largely performed as in Example 17, with a difference found in the administration of compounds of the invention. […] In this example the compounds of the invention are administered using subcutaneous administration, and compound 113 was used as exemplary for compounds according to the invention.
Results are shown in the table below, where compounds were used at 20 mg/kg (5h post infection). Antiviral activity is much improved after subcutaneous administration, with a longer lasting effect.

The subject of data set [3] is Dengue virus 2 (DENV2, ATCC VR-1584). Kind of data set: DENV2 infection in AG129 mice: viral load in plasma (plaque assay). Format: in vivo. The conditions noted are these: b.i.d. As to the method:
as §1, §2, §3, §4
Blood was collected on days-1, 0, 1, 2, 3, 4 to 5.
as §6, §5

A further data set concerns the target T1, DENV protease (Dengue virus type 2, UniProt P29990).
T1 construct: The virus-encoded dengue protease comprises the amino-terminal 180 amino acids of NS3 (NS3pro) of the polyprotein
Kind of data set: biochemical. The conditions noted are these: for inhibition at 50 µM: read-out: inhibition of DENV. In short, it runs like this:
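DENV protease (100 nM) was pre-incubated 15 min with inhibitors in 50 mM Tris-HCl pH 9.0, 10% ethylene glycol, 0.0016% Brij 58. FRET substrate (50 μM final) started the reaction, monitored 15 min as RFU/s slope. IC50 came from triplicate means versus concentration.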

Structures are written as SMILES. Entries after “also recorded” stand apart in the source; their conditions may differ. Where a SMILES comes first, the peptide text is derived from it. The star is where a group is joined. Palmitoyl = CCCCCCCCCCCCCCCC(=O)* Some results are limits rather than exact numbers.

T1 sequence (P29990 1398-1437): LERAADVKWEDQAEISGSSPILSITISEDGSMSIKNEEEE
T1 sequence (P29990 1476-1653): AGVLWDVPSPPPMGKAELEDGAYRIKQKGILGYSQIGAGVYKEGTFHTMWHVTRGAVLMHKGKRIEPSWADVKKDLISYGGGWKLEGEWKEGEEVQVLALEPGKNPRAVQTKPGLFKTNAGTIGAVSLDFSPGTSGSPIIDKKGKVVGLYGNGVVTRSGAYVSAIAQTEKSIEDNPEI

What is called EC50 is the concentration giving half of the maximal effect. Low readings indicate an effect from little substance, high ones a need for much substance. By inhibition is commonly meant the share of the control response that was lost under treatment. `CCCCCCCCCCCCCCCC(=O)N[C@@H](CCCCN)CC(=O)N[C@@H](C)C(=O)N[C@@H](C)CC(=O)N[C@H](CCCCN)C(N)=O` (stereo in doubt) [compound 113]: the pharmacokinetic profiles entry in data set [1] is “reliable pharmacokinetic profiles with limited inter animal variability and dose proportionality”. In data set [1] (sc), the “elimination in blood plasma” value is listed as “slow elimination”. Moreover, in data set [1] (sc), the “pharmacokinetic behaviour when administered subcutaneously” value was “improved pharmacokinetic behaviour”. In addition, the “Body weights of mice at the end of the study (Mean ± SD)” value in data set [2] (10 mg/kg I.P) worked out at 17.22 ± 1.39 g; in data set [2] (20 mg/kg I.P), 16.89 ± 1.36 g. Besides, the “general clinical signs of treated animals” value in data set [2] was “apparently normal”. The “therapeutic efficacy by plaque assays in mouse plasma through the treatment period” value in the data set on dengue virus was “good therapeutic efficacy”. The “plaque assay in mouse plasma” value in the data set with dengue virus (Day 3, IP) is given as 4.70 ± 0.75; in the data set on dengue virus (Day 3, SC) it was 3.58 ± 0.34; with dengue virus (Day 4, IP), 4.23 ± 0.52; in the data set on dengue virus (Day 4, SC) it was 3.26 ± 0.49. In addition, in the data set with dengue virus, the “efficacy against dengue virus infection after subcutaneous administration” value is recorded as “great efficacy; also recorded: improved efficacy”. Moreover, the “Mean + SD Log10PFU/ml Plasma” value in data set [3] (Day 2, 10 mg/kg I.P) was determined as 3.79 ± 0.10 Log10PFU/ml; in data set [3] (Day 2, 20 mg/kg I.P), 3.07 ± 0.28 Log10PFU/ml; in data set [3] (Day 4, 10 mg/kg I.P), 4.65 ± 0.08 Log10PFU/ml; in data set [3] (Day 5, 10 mg/kg I.P), 3.66 ± 0.11 Log10PFU/ml; in data set [3] (Day 5, 20 mg/kg I.P), 3.77 ± 0.11 Log10PFU/ml. This compound also displayed an EC50 in the data set with West Nile virus of at most 25 µM. Moreover, the inhibition at 50 µM at DENV protease is at least 25%. Also, the “inhibition of DENV protease (in words)” value on DENV protease (biochemical and cellular infection assays) was “potent and specific inhibition”.

Consider `CCCCCCCCCCCCCCCC(=O)N[C@@H](CCCNC(=N)N)C(=O)N[C@@H](CCC(N)=O)C(=O)N[C@@H](Cc1ccccc1)C(N)=O` [compound 43] (Palmitoyl-Arg-Gln-Phe-NH2), for which the “pharmacokinetic behaviour when administered subcutaneously” value in data set [1] (sc) is on record as “improved pharmacokinetic behaviour”. For the same compound, the “Body weights of mice at the end of the study (Mean ± SD)” value turned out to be 18.78 ± 2.28 g in data set [2] (10 mg/kg I.P) and 18.11 ± 1.45 g in data set [2] (20 mg/kg I.P). Besides, the “general clinical signs of treated animals” value in data set [2] is “apparently normal”. The “therapeutic efficacy by plaque assays in mouse plasma through the treatment period” value in the data set on dengue virus is on record as “good therapeutic efficacy”. Moreover, the “plaque assay in mouse plasma” value came out at 4.32 ± 0.45 in the data set on dengue virus (Day 3, IP); 3.43 ± 0.304 with dengue virus (Day 3, SC); 4.38 ± 0.41 with dengue virus (Day 4, IP); 3.34 ± 0.40 in the data set on dengue virus (Day 4, SC). Also, in the data set with dengue virus, the “efficacy against dengue virus infection after subcutaneous administration” value was “great efficacy”. For the same compound, the “Mean + SD Log10PFU/ml Plasma” value in data set [3] (Day 2, 10 mg/kg I.P) is listed as 3.36 ± 0.41 Log10PFU/ml; in data set [3] (Day 2, 20 mg/kg I.P), 3.48 ± 0.25 Log10PFU/ml; in data set [3] (Day 5, 10 mg/kg I.P) it was 3.28 ± 0.21 Log10PFU/ml; in data set [3] (Day 5, 20 mg/kg I.P), 3.06 ± 0.31 Log10PFU/ml. The EC50 with West Nile virus is at most 25 µM. Also, the inhibition at 50 µM on DENV protease is at least 25%.
